Source: US7906522B2, “2-aminoquinazoline derivatives” (Kyowa Hakko Kirin Co., Ltd, priority 2005, dated 2011)

Each compound was assayed against T1, Activated human p38α (Homo sapiens, UniProt Q16539) (assay: p38MAP kinase inhibition test). Settings: at a concentration of 1 μmol/L; substrate myelin basic protein, ATP 20 μmol/L, [γ-32P]ATP; read-out: enzyme inhibitory activity.
T1 construct: purchased Upstate Biotechnology Inc. 14-251
T1 sequence (Q16539 whole entry): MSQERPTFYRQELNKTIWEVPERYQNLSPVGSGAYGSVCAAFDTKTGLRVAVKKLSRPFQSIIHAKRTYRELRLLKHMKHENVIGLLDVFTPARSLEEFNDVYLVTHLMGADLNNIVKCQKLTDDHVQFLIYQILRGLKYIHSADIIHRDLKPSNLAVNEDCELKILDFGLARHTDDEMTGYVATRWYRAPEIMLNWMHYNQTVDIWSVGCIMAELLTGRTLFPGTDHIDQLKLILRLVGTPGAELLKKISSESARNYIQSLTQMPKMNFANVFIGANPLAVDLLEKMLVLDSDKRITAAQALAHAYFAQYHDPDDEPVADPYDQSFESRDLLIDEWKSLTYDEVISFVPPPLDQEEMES
Type: biochemical
Method: p38MAP Kinase Inhibition Test
Activated human p38α was purchased from Upstate Biotechnology Inc. (Catalog No. 14-251). P38MAP kinase inhibitory activity was measured by the procedure described below with reference to the method by Whitmarsh A. J. and Davis R. J. [Methods in Enzymology (Method. Enzymol.), vol. 332, p. 319-336 (2001)]. As the substrate to be phosphorylated, a myelin basic protein (Catalog No. 133-13493, Wako Pure Chemical Industries, Ltd.) (20 μg/assay) was used. The reaction was carried out in a solution containing 3-[N-Morpholino]propanesulfonic acid (MOPS) (20 mmol/L, pH 7.2), β-glycerophosphoric acid (Sigma Corp.) (25 mmol/L), ethylenebis(oxyethylenenitrilo)tetraacetic acid (EGTA) (1 mmol/L), […] (Sigma-Aldrich Corp.) (1 mmol/L), dithiothreitol (DTT, Wako Pure Chemical Industries, Ltd.) (1 mmol/L), adenosine 5′-triphosphate (ATP, Sigma Corp.) (20 μmol/L), and MgCl2 (18.75 mmol/L) (total 40 μL/assay). The reaction was started by adding human p38α and [γ-^32P]ATP (1 μCi/assay), and incubation was performed at 30° C. for 15 minutes. The reaction was terminated by adding 4.5% v/v phosphoric acid (10 μL/well). Then, 45 μL of the reaction mixture was adsorbed onto phosphocellulose paper (p81 paper, Code No. 3698023, Whatman International, Maidstone, UK). The phosphocellulose paper was washed with 0.75% v/v phosphoric acid. Then, the radioactivity of the phosphorylated myelin basic protein ([^32P]) remaining on the phosphocellulose paper was measured with a scintillation counter (TRI-CARB2700TR, PerkinElmer, Boston, Mass., USA) using program No. 27 (data mode: cpm, measurement time: 1 min, Background substract: none, energy range measured: LL 0.0-UL 2000) or a scintillation counter (LS6500, BeckmanCoulter, Fullerton, Calif., USA) using program No. 17 (data mode: cpm, measurement time: 1 min, Background substract: none, energy range measured: high). The test compound was dissolved in DMSO before addition.
COC(=O)c1c(OC)c(-c2ccccc2Cl)cc2cnc(NC(C)C)nc12 [Compound 61, 6-(2-Chlorophenyl)-2-isopropylamino-7-methoxy-8-(methoxycarbonyl)quinazoline] was tested, and the inhibition at 1 µM was ≥ 50%.
In the case of COc1cc2nc(N[C@H]3CC[C@H](N)CC3)ncc2cc1-c1ccccc1Cl [Compound 5, 2-(trans-4-Aminocyclohexylamino)-6-(2-chlorophenyl)-7-methoxyquinazoline], the inhibition at 1 µM is reported as ≥ 50%.
COc1cc2nc(NC(C)C)ncc2cc1-c1cccc(OC(C)=O)c1 [Compound 202, 6-(3-Acetoxyphenyl)-2-isopropylamino-7-methoxyquinazoline] was tested, and the inhibition at 1 µM was ≥ 50%.
With COc1cc2nc(N[C@@H](C)c3ccccc3)ncc2cc1-c1ccccc1Cl [Compound 9, (S)-6-(2-Chlorophenyl)-7-methoxy-2-[(1-phenylethyl)amino]quinazoline] the inhibition at 1 µM was ≥ 50%.
COc1cc2nc(NC(C)C)ncc2cc1-c1cccc(NC(=O)Nc2ccccc2)c1 [Compound 210, 2-Isopropylamino-7-methoxy-6-[3-(3-phenylureido)phenyl]quinazoline] was tested, and the inhibition at 1 µM was ≥ 50%.
Cc1ccc(-n2nc(C(C)(C)C)cc2C(=O)Nc2cccc(-c3cc4cnc(NC(C)C)nc4cc3O)c2)cc1 [Compound 359, 6-{3-[5-tert-Butyl-2-(4-methylphenyl)-2H-pyrazol-3-ylcarbonylamino]phenyl}-7-hydroxy-2-(isopropylamino)quinazoline] was tested, and the inhibition at 1 µM was ≥ 50%.
CC(C)Nc1ncc2cc(-c3ccccc3Cl)c(O)c(-c3cccc(C(=O)O)c3)c2n1 [Compound 94, 8-(3-Carboxyphenyl)-6-(2-chlorophenyl)-7-hydroxy-2-(isopropylamino)quinazoline] was tested, and the inhibition at 1 µM was ≥ 50%.
For CC(C)Nc1ncc2cc(-c3ccccc3Cl)c(OCC(C)(C)O)cc2n1 [Compound 34, 6-(2-Chlorophenyl)-7-(2-hydroxy-2-methylpropyloxy)-2-isopropylaminoquinazoline], the inhibition at 1 µM was ≥ 50%.
For CC(=O)c1c(OCC(=O)O)c(-c2ccccc2Cl)cc2cnc(NC(C)C)nc12 [Compound 80, 8-Acetyl-7-(carboxymethyloxy)-6-(2-chlorophenyl)-2-(isopropylamino)quinazoline], the inhibition at 1 µM was ≥ 50%.
With CS(=O)(=O)N1CCC(Nc2ncc3cc(-c4cccc(O)c4)ccc3n2)CC1 [Compound 276, 6-(3-Hydroxyphenyl)-2-[1-(methylsulfonyl)piperidin-4-ylamino]quinazoline] the inhibition at 1 µM was ≥ 50%.
With CC(C)Nc1ncc2cc(-c3ccccc3Cl)c(OCC(C)(C)O)c(C(C)(C)O)c2n1 [Compound 81, 6-(2-Chlorophenyl)-8-(1-hydroxy-1-methylethyl)-7-(2-hydroxy-2-methylpropyloxy)-2-(isopropylamino)quinazoline] the inhibition at 1 µM was ≥ 50%.
In the case of COc1cc2nc(NC(C)C)ncc2cc1-c1cccc(NC(=O)c2ccc[nH]2)c1 [Compound 209, 2-Isopropylamino-7-methoxy-6-{3-[(1H-pyrrol-2-yl)carbonylamino]phenyl}quinazoline], the inhibition at 1 µM is reported as ≥ 50%.
For Cc1ccc(NC(=O)c2ccc[nH]2)cc1-c1ccc2nc(NC(C)C)ncc2c1 [Compound 253, 2-Isopropylamino-6-{2-methyl-5-[(1H-pyrrol-2-yl)carbonylamino]phenyl}quinazoline], the inhibition at 1 µM was ≥ 50%.
For CC(C)Nc1ncc2cc(-c3cc(NC(=O)c4ccc[nH]4)ccc3CO)ccc2n1 [Compound 255, 6-{2-Hydroxymethyl-5-[(1H-pyrrol-2-yl)carbonylamino]phenyl}-2-(isopropylamino)quinazoline], the inhibition at 1 µM was ≥ 50%.
For Cc1ccc(NC(=O)c2ccncc2)cc1-c1ccc2nc(NC(C)C)ncc2c1 [Compound 259, 2-Isopropylamino-6-{2-methyl-5-[(4-pyridyl)carbonylamino]phenyl}quinazoline], the inhibition at 1 µM was ≥ 50%.
In the case of COc1cc2nc(NC(C)C)ncc2cc1-c1cc(NC(=O)c2ccc[nH]2)ccc1C [Compound 232, 2-Isopropylamino-7-methoxy-6-{2-methyl-5-[(1H-pyrrol-2-yl)carbonylamino]phenyl}quinazoline], the inhibition at 1 µM is reported as ≥ 50%.
CON(C)C(=O)c1c(O)c(-c2ccccc2Cl)cc2cnc(NC(C)C)nc12 [Compound 72, 6-(2-Chlorophenyl)-7-hydroxy-2-isopropylamino-8-(N-methoxy-N-methylaminocarbonyl)quinazoline] was tested, and the inhibition at 1 µM was ≥ 50%.
In the case of COc1cc2nc(NC3CCOCC3)ncc2cc1-c1cccc(NC(C)=O)c1 [Compound 243, 6-(3-Acetylaminophenyl)-7-methoxy-2-(4-tetrahydropyranylamino)quinazoline], the inhibition at 1 µM is reported as ≥ 50%.
With COc1cc2nc(NC(C)C)ncc2cc1-c1cccc(NC(=O)C2CC2)c1 [Compound 220, 6-[3-(Cyclopropylcarbonylamino)phenyl]-2-isopropylamino-7-methoxyquinazoline] the inhibition at 1 µM was ≥ 50%.
For COc1ccccc1C(=O)c1cc2cnc(NC(C)C)nc2cc1O [Compound 122, 7-Hydroxy-2-isopropylamino-6-(2-methoxybenzoyl)quinazoline], the inhibition at 1 µM was ≥ 50%.
CC(C)Nc1ncc2cc(-c3ccccc3Cl)c(O)c(-c3cccc(CC(=O)O)c3)c2n1 [Compound 96, 8-[3-(Carboxymethyl)phenyl]-6-(2-chlorophenyl)-7-hydroxy-2-(isopropylamino)quinazoline] was tested, and the inhibition at 1 µM was ≥ 50%.
In the case of CC(=O)OCCOc1cc2nc(NC(C)C)ncc2cc1-c1ccccc1Cl [Compound 22, 7-(2-Acetyloxyethyloxy)-6-(2-chlorophenyl)-2-isopropylaminoquinazoline], the inhibition at 1 µM is reported as ≥ 50%.
In the case of CC(C)Nc1ncc2cc(C(=O)c3cccc(O)c3)c(O)cc2n1 [Compound 123, 7-Hydroxy-6-(3-hydroxybenzoyl)-2-(isopropylamino)quinazoline], the inhibition at 1 µM is reported as ≥ 50%.
For CCCS(=O)(=O)N1CCC(Nc2ncc3cc(-c4ccccc4Cl)c(O)cc3n2)CC1 [Compound 162, 6-(2-Chlorophenyl)-7-hydroxy-2-[1-(1-propylsulfonyl)piperidin-4-ylamino]quinazoline], the inhibition at 1 µM was ≥ 50%.
CC(C)Nc1ncc2cc(-c3ccccc3Cl)c(O)c(-c3ccc(CC(=O)O)cc3)c2n1 [Compound 95, 8-[4-(Carboxymethyl)phenyl]-6-(2-chlorophenyl)-7-hydroxy-2-(isopropylamino)quinazoline] was tested, and the inhibition at 1 µM was ≥ 50%.
COc1cc2nc(NC3CCN(S(C)(=O)=O)CC3)ncc2cc1-c1ccccc1C [Compound 164, 7-Methoxy-6-(2-methylphenyl)-2-[1-(methylsulfonyl)piperidin-4-ylamino]quinazoline] was tested, and the inhibition at 1 µM was ≥ 50%.
For COc1cc2nc(NC(C)C)ncc2cc1-c1ccccc1[N+](=O)[O-] [Compound 55, 2-Isopropylamino-7-methoxy-6-(2-nitrophenyl)quinazoline], the inhibition at 1 µM was ≥ 50%.
With COc1cc2nc(NC3CCN(S(=O)(=O)C(F)(F)F)CC3)ncc2cc1-c1ccccc1Cl [Compound 13, 6-(2-Chlorophenyl)-7-methoxy-2-[1-(trifluoromethylsulfonyl)piperidin-4-ylamino]quinazoline] the inhibition at 1 µM was ≥ 50%.
In the case of CCCNC(=O)c1c(OC)c(-c2ccccc2Cl)cc2cnc(NC(C)C)nc12 [Compound 69, 6-(2-Chlorophenyl)-2-isopropylamino-7-methoxy-8-(N-propylaminocarbonyl)quinazoline], the inhibition at 1 µM is reported as ≥ 50%.
In the case of Cc1ccc(NC(=O)c2ccnc(N3CCOCC3)c2)cc1-c1ccc2nc(NC(C)C)ncc2c1 [Compound 256, 2-Isopropylamino-6-{2-methyl-5-[(2-morpholinopyridin-4-yl)carbonylamino]phenyl}quinazoline], the inhibition at 1 µM is reported as ≥ 50%.
For COc1cc2nc(NC(C)C)ncc2cc1-c1cccc(NC(=O)c2cccnc2)c1 [Compound 221, 2-Isopropylamino-7-methoxy-6-{3-[(3-pyridyl)carbonylamino]phenyl}quinazoline], the inhibition at 1 µM was ≥ 50%.
With COc1cc2nc(NC(C)C)ncc2cc1-c1ccccc1C(C)=O [Compound 187, 6-(2-Acetylphenyl)-2-isopropylamino-7-methoxyquinazoline] the inhibition at 1 µM was ≥ 50%.
CC[C@@H](C)Nc1ncc2cc(-c3ccccc3C)c(OC)cc2n1 [Compound 166, (R)-2-(sec-Butylamino)-7-methoxy-6-(2-methylphenyl)quinazoline] was tested, and the inhibition at 1 µM was ≥ 50%.
With CC(C)Nc1ncc2cc(-c3ccccc3Cl)c(OCC(=O)N3CCCCC3)cc2n1 [Compound 38, 6-(2-Chlorophenyl)-2-isopropylamino-7-[(piperidinocarbonyl)methyloxy]quinazoline] the inhibition at 1 µM was ≥ 50%.
COc1cc2nc(NC(C)C)ncc2cc1-c1cccc(NC(=O)c2cccc(F)c2)c1 [Compound 219, 6-{3-[(3-Fluorophenyl)carbonylamino]phenyl}-2-isopropylamino-7-methoxyquinazoline] was tested, and the inhibition at 1 µM was ≥ 50%.
